Experimental data published in patent publication US7968724B2, “Ester derivatives as phosphodiesterase inhibitors” (Chiesi Farmaceutici S.p.A., priority 2007, dated 2011).

Columns and labels:
HPDE4 = conditions: literature, Giembycz et al. 2001; cited from earlier work
LPDE4 [1] = conditions: literature, Giembycz et al. 2001; cited from earlier work
[2] = test system: LPS-induced TNF-α release in peripheral blood mononuclear cells (PBMCs); experiment: PDE4 inhibitory activity in the PBMCs assay (LPS-induced TNF-α release); assay type: cell-based; conditions: PBMC; human PBMCs, LPS 3 ng/ml, 18 hours; read-out: IC50 in the PBMCs assay (50% inhibition of LPS-induced TNF-α release)
Protocol: The assay, which is based on the known inhibitory activity exerted by PDE4 inhibitors on the lipopolyshaccarides (LPS)-induced tumour necrosis factor-alpha (TNF-α release in peripheral blood mononuclear cells (PBMCs), is performed according to a method previously described (Hatzelmann A et al., J. Pharmacol. Exp. Ther., 2001; 297:267-279; and Draheim R et al., J. Pharmacol. Exp. Ther., 2004; 308:555-563. Cryopreserved human PBMCs, (100 μl/well) are incubated in 96-well plates (10^5 cells/well), for 30 minutes, in the presence or absence (50 microl) of the test compounds whose concentrations ranged from 10^−12 M to 10^−6 M. Subsequently, LPS (3 ng/ml) is added. After 18 hours of incubation at 37° C. in a humidified incubator under an atmosphere of 95% air and 5% CO2, culture medium is collected and TNF-α measured by ELISA.
The results are expressed as mean±95% confidence limits of the molar concentration of the test compound producing 50% inhibition of LPS-induced TNF-α release (IC50). […] The effects of the tested compounds are calculated as percentage of inhibition of TNF-α release, assuming LPS-induced TNF-α production in the absence of inhibitor compound as 100% and basal TNF-α production of PBMCs in the absence of LPS as 0%.

LPDE4 [3] = experiment: Ability to inhibit low affinity LPDE4 (cAMP disappearance) versus competing for high affinity HPDE4 ([H3]rolipram binding); assay type: biochemical
Excerpt: Advantageously the compounds of the invention are characterized by a selectivity toward LPDE4 higher than that toward HPDE4 as obtained by the determination of their IC50. In the case of LPDE4, the IC50 is the molar concentration of the test compound producing 50% inhibition of cAMP disappearance, assessed as described in Cortijo J et al., Br. J. Pharmacol., 1993, 108: 562-568, while in the case of HPDE4, the IC50 is the molar concentration of the test compound producing 50% inhibition of the binding of [H^3] rolipram, assessed as described in Duplantier A J et al., J. Med. Chem., 1996; 39: 120-125. Preferably the HPDE4/LPDE IC50 ratio for the compounds of the invention is higher than 10, more preferably higher than 100, even more preferably higher than 300.
The affinity toward LPDE4 and HPDE4 is assessed as previously described respectively in Cortijo J et al., Br. J. Pharmacol., 1993, 108: 562-568 and Duplantier A J et al., J. Med. Chem., 1996; 39: 120-125. The activity of compounds 1, 2, 4, 5, 6, and 7 is evaluated.

Structure (SMILES)	IC50 (HPDE4)	HPDE4/LPDE4 ratio (LPDE4 [1])	IC50 (LPDE4 [1])	IC50 [2]	inhibition of LPDE4 (affinity) (LPDE4 [3])
COc1ccc([C@]2(C#N)CC[C@@H](C(=O)O)CC2)cc1OC1CCCC1 [cilomilast]	120 nM	about 1.3	90 nM	–	–
COc1ccc(C(=Cc2c(Cl)c[n+]([O-])cc2Cl)OC(=O)c2ccccc2)c2c1oc1ccccc12 [Compound 7, Benzoic acid 2-(3,5-dichloro-1-oxy-pyridin-4-yl)-1-(4-methoxy-dibenzofuran-1-yl)-vinyl ester]	–	–	–	1 to 150 nM	nanomolar affinity
COc1ccc(C(=Cc2c(Cl)cncc2Cl)OC(=O)c2ccccc2)c2c1oc1ccc([N+](=O)[O-])cc12 [Compound 1, Benzoic acid 2-(3,5-dichloro-pyridin-4-yl)-1-(4-methoxy-8-nitro-dibenzofuran-1-yl)-vinyl ester]	–	–	–	1 to 150 nM	nanomolar affinity
COc1ccc(C(=Cc2c(Cl)cncc2Cl)OC(=O)c2ccccc2)c2c1oc1ccc(NS(C)(=O)=O)cc12 [Compound 5, Benzoic acid 2-(3,5-dichloro-pyridin-4-yl)-1-(8-methanesulfonylamino-4-methoxy-dibenzofuran-1-yl)-vinyl ester]	–	–	–	1 to 150 nM	nanomolar affinity
COc1ccc(C(=Cc2c(Cl)cncc2Cl)OC(=O)c2ccccc2)c2c1oc1ccccc12 [Compound 2, Benzoic acid 2-(3,5-dichloro-pyridin-4-yl)-1-(4-methoxy-dibenzofuran-1-yl)-vinyl ester]	–	–	–	1 to 150 nM	nanomolar affinity
COc1ccc(C(=Cc2c(Cl)c[n+]([O-])cc2Cl)OC(=O)c2ccccc2)c2c1oc1ccc([N+](=O)[O-])cc12 [Compound 6, Benzoic acid 2-(3,5-dichloro-1-oxy-pyridin-4-yl)-1-(4-methoxy-8-nitro-dibenzofuran-1-yl)-vinyl ester]	–	–	–	–	nanomolar affinity
COc1ccc(C(=Cc2c(Cl)cncc2Cl)OC(=O)c2ccccc2)c2c1oc1ccc(N)cc12 [Compound 4, Benzoic acid 2-(3,5-dichloro-pyridin-4-yl)-1-(4-methoxy-8-amino-dibenzofuran-1-yl)-vinyl ester]	–	–	–	1 to 150 nM	nanomolar affinity
